Assay results published in paper PMC10574351, “First-Row Transition Metal Complexes Incorporating the 2-(2′-pyridyl)quinoxaline Ligand (pqx), as Potent Inflammatory Mediators: Cytotoxic Properties and Biological Activities against the Platelet-Activating Factor (PAF) and Thrombin” (Molecules, 2023).

Tested on: dithiothreitol-insensitive PAF choline phosphotransferase (PAF-CPT)
Test: PAF-CPT activity assay on leukocyte homogenate
Type: biochemical
Conditions: rabbit leukocyte homogenate; Figure 8
Experimental: The experiment on the inhibitory effect of each compound of interest against the washed rabbit platelets (WRPs) aggregation was carried out as per the already described method. The platelets were from male New Zealand white rabbits (about 20), individually housed in stainless steel cages in an air-conditioned room (19 ± 1 °C, 55 ± 5% humidity on a 12/12 h artificial light/dark cycle). Blood samples were drawn from the main ear artery. Microliters of PAF in a final concentration of about 10^–10 M were added to the cuvette of the aggregometer, and the height of the platelet aggregation was monitored. […] Dithiothreitol-insensitive PAF choline phosphotransferase, lyso-PAF:acetyl-CoA acetyltransferase and PAF-acetylhydrolase activity assays were performed on the homogenates of rabbit leukocytes while the activity of lipoprotein-associated phospholipase A2 was assessed on plasma as previously described. […] All results were expressed as mean ± standard deviation (SD). […] Data were analyzed using a statistical software package (SPSS for Windows, 16.0, 2007, SPSS Inc., Chicago, IL, USA) and Microsoft Excel 2007. […]

## [Fe(pqx)Cl2]2 [Complex 6]
  inhibition of the specific activity of PAF-CPT: inhibit, in a dose-dependent way
